What was measured:
Assay type in all cases: biochemical, Trichoderma atroviride
[1] = system: FgenL model RNA; experiment: TapeStation Assay, FgenL model RNA; parameters: Conc. FgenL#1 / Conc. FgenL#2: unit not given here
Summary of the method: (§1)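 Chi18 or FgenL model RNA at 50 ng/μL in 50 mM CAPS pH 11 was mixed with amino acids (stocks in CAPS, readjusted to >pH 11) and heated at 50° C for 0 or 15 minutes; time-0 samples stayed on ice. Intact RNA was measured by capillary electrophoresis with optical detection and compared with a no-degradation baseline.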

[2] = system: Chi18 model RNA; experiment: TapeStation Assay, Chi18 model RNA; parameters: Conc. chi18#1 / Conc. chi18#2: unit not given here
Summary of the method: as §1

[3] = system: Chi18 mRNA construct; experiment: Size Exclusion Base Hydrolysis Degradation Assay, Chi18
Summary of the method: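 mRNA (diluted to 1.0 mg/mL) preincubated 1 h with amino acid, then brought to pH 11 with CAPS and NaOH at room temperature. Intact mRNA quantified by size-exclusion UPLC, peak area at 250 nm in the T=0 elution window, expressed as percentage of T=0 at 2, 10 and 24 hrs.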

[4] = molecular target: Chi18 model RNA; experiment: Droplet Digital Polymerase Chain Reaction (ddPCR) Assay, Chi18; details: percent protection, pH 11.0, 30° C., 16 hours, n = 2
Summary of the method: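 Chi18 (25 fg/μL) or FgenL (10 fg/μL) RNA at pH 11.0 incubated 16 h with amino acids (10-point half-log series, ~300 mM top stock in CAPS), at 30° C or 44° C respectively. Intact RNA reverse-transcribed, ddPCR 5′-positive droplet fraction taken as protection; EC50 from four-parameter logistic fit.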

[5] = system: FgenL model RNA; details: percent protection, pH 11.0, 44° C., 16 hours, n = 2
[6] = FgenL RNA, 20 mM amino acids, 50 mM CAPS pH 11, 50° C. 15 min, vs Time 0
[7] = Chi18 RNA, 20 mM amino acids, 50 mM CAPS pH 11, 50° C. 15 min, vs Time 0

## CC(C)[C@H](N)C(=O)O [Valine]
[1]; [6]
  % Control N = 1: 25.4%
  % Control N = 2: 18.4%
[1]; FgenL RNA, 20 mM amino acids, 50 mM CAPS pH 11, 50° C. 15 min, vs Time 0, Avg N=2
  % Control Average: 21.9%
[1]; intact FgenL RNA after 15 min at 50° C., 20 mM amino acids in 50 mM CAPS pH 11, run #1
  Conc. FgenL#1: 8.77
[1]; intact FgenL RNA after 15 min at 50° C., 20 mM amino acids in 50 mM CAPS pH 11, run #2
  Conc. FgenL#2: 6.38
[2]; [7]
  % Control N = 1: 32.5%
  % Control N = 2: 32.5%
[2]; Chi18 RNA, 20 mM amino acids, 50 mM CAPS pH 11, 50° C. 15 min, vs Time 0, Avg N=2
  % Control Avg.: 32.5%
[2]; intact Chi18 RNA after 15 min at 50° C., 20 mM amino acids in 50 mM CAPS pH 11, run #1
  Conc. chi18#1: 17.3
[3]; Chi18 0.1 mg/mL, 25 mM amino acid, 50 mM CAPS, T=0, replicate 1
  T0 R1 peak area at 250 nm: 29804
[3]; Chi18, 25 mM amino acid, 50 mM CAPS pH 11, room temperature, 2 hrs
  T2 Avg, peak area as percentage of T=0: 56.7%
[3]; Chi18, 25 mM amino acid, 50 mM CAPS pH 11, room temperature, 2 hrs, replicate 1
  T2 R1 peak area at 250 nm: 12369
[3]; Chi18, 25 mM amino acid, 50 mM CAPS pH 11, room temperature, 10 hrs
  T10 Avg, peak area as percentage of T=0: 0.0%
[3]; Chi18, 25 mM amino acid, 50 mM CAPS pH 11, room temperature, 10 hrs, replicate 1
  T10 R1 peak area at 250 nm: 0
[3]; Chi18, 25 mM amino acid, 50 mM CAPS pH 11, room temperature, 24 hrs
  T24 Avg, peak area as percentage of T=0: 0.0%
[3]; Chi18, 25 mM amino acid, 50 mM CAPS pH 11, room temperature, 24 hrs, replicate 1
  T24 R1 peak area at 250 nm: 0
[3]; Chi18, 25 mM amino acid, T=0 (reference)
  T0 Avg, peak area as percentage of T=0: 100.0%
[4]
  EC50: > 30 mM
[5]
  EC50: > 30 mM

Source: patent US20240122865A1, “Methods of Protecting RNA” (Pfizer Inc., priority 2021, published 2024)
